The source of these data is patent US7173004B2, “Macrocyclic isoquinoline peptide inhibitors of hepatitis C virus” (Bristol-Myers Squibb Company, priority 2003, dated 2007).

The assay deals with HCV replicon (HCV 1b-377-neo replicon cells, Huh7). Briefly: HCV replicon cell-based FRET assay. The conditions noted are these: Hepatitis C virus, Huh-7. The method, then:
HCV Replion assays were utilized in the present invention, and were prepared, conducted and validated as follows:
An HCV replicon whole cell system was established as described by Lohmann V, Korner F, Koch J, Herian U, Theilmann L, Bartenschlager R., Science 285(5424): 110–3 (1999). This system enabled us to evaluate the effects of our HCV Protease compounds on HCV RNA replication. Briefly, using the HCV strain 1B sequence described in the Lohmann paper (Assession number: AJ238799), an HCV cDNA was synthesized by Operon Technologies, Inc. (Alameda, Calif.), and the full-length replicon was then assembled in plasmid pGem9zf(+) (Promega, Madison, Wis.) using standard molecular biology techniques. The replicon consists of (i) the HCV 5′ UTR fused to the first 12 amino acids of the capsid protein, (ii) the neomycin phosphotransferase gene (neo), (iii) the IRES from encephalomyocarditis virus (EMCV), and (iv) HCV NS3 to NS5B genes and the HCV 3′ UTR. Plasmid DNAs were linearized with ScaI and RNA transcripts were synthesized in vitro using the T7 MegaScript transcription kit (Ambion, Austin, Tex.) according to manufacturer's directions. To generate cell lines, 4×10^6 Huh-7 cells (kindly provided by R. Bartenschlager and available from Health Science Research Resources Bank, Japan Health Sciences Foundation) were electroporated (GenePulser System, Bio-Rad) with 10 microgram(“μg”) of RNA transcript and plated into 100-mm dishes. After 24 h, selective media containing 1.0 milligrams/milliliter (“mg/ml”) G418 was added and media was changed every 3 to 5 days. Approximately 4 weeks after electroporation, small colonies were visible which were isolated and expanded for further analysis. These cell lines were maintained at 37° C., 5% CO2, 100% relative humidity in DMEM (Cat# 11965-084) Gibco-BRL, Rockville, Md., with 10% heat inactivated calf serum (Sigma), 10 ml of 100× penicillin/streptomycin (Cat# 15140-122) Gibco-BRL, Rockville, Md., Geneticin (Cat# 10131-027) Gibco-BRL, Rockville, Md. at 1 mg/ml. One of the cell lines (deposited as ATCC Accession No. PTA-4583 in the American Type Culture Collection) which had approximately 3,000 copies of HCV replicon RNA/cell was used for development of the assay (HCV 1b-377-neo replicon cells).
Huh7 cells, constitutively expressing the HCV replicon, were grown in Dulbecco's Modified Eagle Media (DMEM) containing 10% Fetal calf serum (FCS) and 1 mg/ml G418 (Gibco-BRL). Cells were seeded the night before (1.5×10^4 cells/well) in 96-well tissue-culture sterile plates. Compound and no compound controls were prepared in DMEM containing 4% FCS, 1:100 Penicillin/Streptomysin, 1:100 L-glutamine and 5% DMSO in the dilution plate (0.5% DMSO final concentration in the assay). Compound/DMSO mixes were added to the cells and incubated for 4 days at 37° C. After 4 days, cells were first assessed for cytotoxicity using alamar Blue (Trek Diagnotstic Systems) for a CC50 reading. The toxicity of compound (CC50) was determined by adding 1/10th volume of alamar Blue to the media incubating the cells. After 4 hr, the fluorescence signal from each well was read, with an excitation wavelength at 530 nm and an emission wavelength of 580 nm, using the Cytofluor Series 4000 (Perspective Biosystems). Plates were then rinsed thoroughly with Phosphate-Buffered Saline (PBS) (3 times 150 μl). The cells were lysed with 25 μl of a lysis assay reagent containing an HCV protease substrate (5× cell Luciferase cell culture lysis reagent (Promega #E153A) diluted to 1× with distilled water, NaCl added to 150 mM final, the FRET peptide diluted to 10 μM final from a 2 mM stock in 100% DMSO). The HCV protease substrate (FRET peptide; AnaSpec, Inc. cat #22991, described by Taliani et al. in Anal. Biochem. 240(2):60–67 (1996)) contains a fluorescence donor, EDANS, near one end of the peptide and an acceptor, DABCYL, near the other end. […]
`COc1ccc2c(O[C@@H]3C[C@H]4C(=O)N[C@]5(C(=O)NS(=O)(=O)C6CC6)C[C@H]5/C=C\CCCCC[C@H](NC(=O)OC(C)(C)C)C(=O)N4C3)nccc2c1` [Compound 17B, [4-Cyclopropanesulfonylaminocarbonyl-18-(6-methoxy-isoquinolin-1-yloxy)-2,15-dioxo-3,16-diaza-tricyclo[14.3.0.0^4,6]nonadec-7-en-14-yl]-carbamic acid tert-butyl ester] came in with an EC50 of less than 0.05 µM.
For `COc1ccc2c(OC3CC4C(=O)NC5(C(=O)O)CC5C=CCCCSCC(NC(=O)OC(C)(C)C)C(=O)N4C3)nccc2c1` (stereo not shown) [Compound 18A, 14-tert-Butoxycarbonylamino-18-(6-methoxy-isoquinolin-1-yloxy)-2,15-dioxo-12-thia-3,16-diaza-tricyclo[14.3.0.0^4,6]nonadec-7-ene-4-carboxylic acid], the EC50 was in the range of 0.5 to 5 µM.
`COc1ccc2c(OC3C[C@H]4C(=O)N[C@]5(C(=O)NS(=O)(=O)C6CC6)C[C@H]5/C=C\CCCSC[C@H](NC(=O)OC(C)(C)C)C(=O)N4C3)nccc2c1` (stereo partly shown) [Compound 18B, [4-Cyclopropanesulfonylaminocarbonyl-18-(6-methoxy-isoquinolin-1-yloxy)-2,15-dioxo-12-thia-3,16-diaza-tricyclo[14.3.0.0^4,6]nonadec-7-en-14-yl]-carbamic acid tert-butyl ester] displayed a concentration giving a half-maximal response (EC50) of less than 0.05 µM.
The compound `COc1ccc2c(O[C@@H]3C[C@H]4C(=O)N[C@]5(C(=O)NS(=O)(=O)C6CC6)C[C@H]5/C=C\CCCS(=O)(=O)C[C@H](NC(=O)OC(C)(C)C)C(=O)N4C3)nccc2c1` [Compound 19] gave an EC50 of 0.05 to 0.5 µM.
For `O=C(NC1CCCCCC=CC2CC2(C(=O)NS(=O)(=O)C2CC2)NC(=O)C2CC(Oc3nccc4ccccc34)CN2C1=O)OC1CCCC1` (stereo not shown) [Compound 20] the value was less than 0.05 µM.
As to `COc1c(NC2CCCCCC=CC3CC3(C(=O)NS(=O)(=O)C3CC3)NC(=O)C3CC(Oc4nccc5ccccc45)CN3C2=O)c(=O)c1=O` (stereo not shown) [Compound 21], the half-maximal effective concentration (EC50) lay within 0.05 to 0.5 µM.
`O=C(CC1CC1)NC1CCCCCC=CC2CC2(C(=O)NS(=O)(=O)C2CC2)NC(=O)C2CC(Oc3nccc4ccccc34)CN2C1=O` (stereo not shown) [Compound 22] returned an EC50 of less than 0.05 µM.
The compound `CCCNC(=O)NC1CCCCCC=CC2CC2(C(=O)NS(=O)(=O)C2CC2)NC(=O)C2CC(Oc3nccc4ccccc34)CN2C1=O` (stereo not shown) [Compound 23] yielded a half-maximal effective concentration (EC50) of less than 0.05 µM.
Consider `COCC(=O)NC1CCCCCC=CC2CC2(C(=O)NS(=O)(=O)C2CC2)NC(=O)C2CC(Oc3nccc4ccccc34)CN2C1=O` (stereo not shown) [Compound 24], for which the EC50 was 0.05 to 0.5 µM.
Regarding `CS(=O)(=O)NC1CCCCCC=CC2CC2(C(=O)NS(=O)(=O)C2CC2)NC(=O)C2CC(Oc3nccc4ccccc34)CN2C1=O` (stereo not shown) [Compound 25], the EC50 fell in the range of 0.5 to 5 µM.
Turning to `CC(=O)NC1CCCCCC=CC2CC2(C(=O)NS(=O)(=O)C2CC2)NC(=O)C2CC(Oc3nccc4ccccc34)CN2C1=O` (stereo not shown) [Compound 26], the 50% effective concentration (EC50) lay in the range of 0.05 to 0.5 µM.
`COc1ccc2c(OC3CC4C(=O)NC5(C(=O)O)CC5C=CCOCCCC(NC(=O)OC(C)(C)C)C(=O)N4C3)nccc2c1` (stereo not shown) [Compound 27, 14-tert-Butoxycarbonylamino-18-(6-methoxy-isoquinolin-1-yloxy)-2,15-dioxo-10-oxa-3,16-diaza-tricyclo[14.3.0.0^4,6]nonadec-7-ene-4-carboxylic acid] came in with an EC50 of 0.5 to 5 µM.
To `COc1ccc2c(OC3CC4C(=O)NC5(C(=O)NS(=O)(=O)C6CC6)CC5C=CCOCCCC(NC(=O)OC(C)(C)C)C(=O)N4C3)nccc2c1` (stereo not shown) [Compound 28, [4-Cyclopropanesulfonylaminocarbonyl-18-(6-methoxy-isoquinolin-1-yloxy)-2,15-dioxo-10-oxa-3,16-diaza-tricyclo[14.3.0.0^4,6]nonadec-7-en-14-yl]-carbamic acid tert-butyl ester] belongs less than 0.05 µM; to `COc1ccc2c(OC3CC4C(=O)NC5(C(=O)NS(=O)(=O)C6(C)CC6)CC5C=CCOCCCC(NC(=O)OC(C)(C)C)C(=O)N4C3)nccc2c1` (stereo not shown) [Compound 29], less than 0.05 µM.
Take `CCC1(S(=O)(=O)NC(=O)C23CC2C=CCOCCCC(NC(=O)OC(C)(C)C)C(=O)N2CC(Oc4nccc5cc(OC)ccc45)CC2C(=O)N3)CC1` (stereo not shown) [Compound 30]: the 50% effective concentration (EC50) is less than 0.05 µM.
As to `COc1ccc2c(OC3CC4C(=O)NC5(C(=O)NS(=O)(=O)C6CC6)CC5C=CCOCCCC(NC(=O)OC(C)C)C(=O)N4C3)nccc2c1` (stereo not shown) [Compound 31], the concentration for a half-maximal effect (EC50) was less than 0.05 µM.
With `COc1ccc2c(OC3CC4C(=O)NC5(C(=O)NS(=O)(=O)C6CC6)CC5C=CCOCCCC(NC(=O)OCC(C)(C)C)C(=O)N4C3)nccc2c1` (stereo not shown) [Compound 32], the EC50 is less than 0.05 µM.
To `COc1ccc2c(OC3CC4C(=O)NC5(C(=O)NS(=O)(=O)C6CC6)CC5C=CCOCCCC(NC(=O)NC5CCCC5)C(=O)N4C3)nccc2c1` (stereo not shown) [Compound 33] belongs less than 0.05 µM.
To `COc1ccc2c(OC3CC4C(=O)NC5(C(=O)NS(=O)(=O)C6CC6)CC5C=CCOCCCC(NC(=O)NC(C)(C)C)C(=O)N4C3)nccc2c1` (stereo not shown) [Compound 34] belongs less than 0.05 µM; to `COc1ccc2c(OC3CC4C(=O)NC5(C(=O)NS(=O)(=O)C6(C)CC6)CC5C=CCOCCCC(NC(=O)OC(C)C)C(=O)N4C3)nccc2c1` (stereo not shown) [Compound 35], less than 0.05 µM.
Compound `COc1ccc2c(OC3CC4C(=O)NC5(C(=O)NS(=O)(=O)C6(C)CC6)CC5C=CCOCCCC(NC(=O)NC5CCCC5)C(=O)N4C3)nccc2c1` (stereo not shown) [Compound 36] came in with a half-maximal effective concentration (EC50) of less than 0.05 µM.
For `CCC1(S(=O)(=O)NC(=O)C23CC2C=CCOCCCC(NC(=O)OC(C)C)C(=O)N2CC(Oc4nccc5cc(OC)ccc45)CC2C(=O)N3)CC1` (stereo not shown) [Compound 37] the value was less than 0.05 µM; for `CCC1(S(=O)(=O)NC(=O)C23CC2C=CCOCCCC(NC(=O)NC2CCCC2)C(=O)N2CC(Oc4nccc5cc(OC)ccc45)CC2C(=O)N3)CC1` (stereo not shown) [Compound 38], less than 0.05 µM.
For `COc1ccc2c(OC3CC4C(=O)NC5(C(=O)NS(=O)(=O)C6CC6)CC5C=CCOCCCC(NC(=O)OC(C)(C)C(F)(F)F)C(=O)N4C3)nccc2c1` (stereo not shown) [Compound 39] the value was less than 0.05 µM; for `COc1ccc2c(OC3CC4C(=O)NC5(C(=O)NS(=O)(=O)C6(C)CC6)CC5C=CCCCSCC(NC(=O)OC(C)C)C(=O)N4C3)nccc2c1` (stereo not shown) [Compound 41], less than 0.05 µM; for `COc1ccc2c(OC3CC4C(=O)NC5(C(=O)NS(=O)(=O)C6(C)CC6)CC5C=CCCCSCC(NC(=O)OCC(C)(C)C)C(=O)N4C3)nccc2c1` (stereo not shown) [Compound 42], less than 0.05 µM.
In turn, `COc1ccc2c(OC3CC4C(=O)NC5(C(=O)NS(=O)(=O)C6(C)CC6)CC5C=CCCCSCC(NC(=O)NC5CCCC5)C(=O)N4C3)nccc2c1` (stereo not shown) [Compound 43] showed an EC50 of less than 0.05 µM.
Compound `CCC1(S(=O)(=O)NC(=O)C23CC2C=CCCCSCC(NC(=O)OC(C)C)C(=O)N2CC(Oc4nccc5cc(OC)ccc45)CC2C(=O)N3)CC1` (stereo not shown) [Compound 44] had a 50% effective concentration (EC50) of less than 0.05 µM.
For `CCC1(S(=O)(=O)NC(=O)C23CC2C=CCCCSCC(NC(=O)OCC(C)(C)C)C(=O)N2CC(Oc4nccc5cc(OC)ccc45)CC2C(=O)N3)CC1` (stereo not shown) [Compound 45] the value was less than 0.05 µM.
On to `CCC1(S(=O)(=O)NC(=O)C23CC2C=CCCCSCC(NC(=O)NC2CCCC2)C(=O)N2CC(Oc4nccc5cc(OC)ccc45)CC2C(=O)N3)CC1` (stereo not shown) [Compound 46], for which the EC50 is less than 0.05 µM.
For `CCC1(S(=O)(=O)NC(=O)C23CC2C=CCCC[S+]([O-])CC(NC(=O)OC(C)(C)C)C(=O)N2CC(Oc4nccc5cc(OC)ccc45)CC2C(=O)N3)CC1` (stereo not shown) [Compound 47] the value was less than 0.05 µM.
